Read-outs that look alike come from different tables or passages of the source. Marks after values point to notes of the source that are not given here.
Assays:
gerbils = settings: cited from earlier work
[1] = tested on: glutamate-mediated neurotoxicity; settings: cited from earlier work
cultured nerve cells = settings: 1 - 100 fg/ml in culture medium; cited from earlier work
SH-SP rats [2] = assay: Ratio of cerebrocortical infarction after MCA permanent occlusion, intravenous infusion; format: in vivo
Protocol: (§1) First, we examined the actions of intravenous infusion of ginsenoside Rb1. For this purpose, for example, male SH-SP rats, weighing 250 - 300 g at the age of 12-13 weeks were used. The animals were bred in an air-conditioned room with a 12:12 hour light-dark cycle, and water and feeds were supplied ad libitum. The cortical branch of the left middle cerebral artery (MCA) was coagulated and cut under inhalation anesthesia.
After the water maze tests at the 4th week, the SH-SP rats were anesthetized with chloral hydrate, and they were perfused and fixed transcardially with 0.1 mole phosphate buffer containing 4% paraformaldehyde. The brains were dissected out and cerebrocortical infarcted areas were photographed. Areas of the left cerebral hemispheres and the left cerebrocortical infarct lesions were measured on the photographs by using an image analysis device. The left cerebrocortical infarcted areas were divided by the left cerebral hemispheric areas to calculate ratios of the cerebrocortical infarction (%).
Male SH-SP rats, at the age of 12-13 weeks, (stroke-prone spontaneously hypertensive rat: weighing 250 - 300 g), were used. Animals were housed in an air-conditioned room furnished with a 12:12 hour light-dark cycle, and water and feeds were supplied ad libitum. The mean blood pressure of the animals was 203±6.9 mmHg. The following experiments were conducted in accordance with the Guide for Animal Experimentation at Ehime University School of Medicine. The cortical branch of the left middle cerebral artery (MCA) of SH-SP rats were coagulated and cut, while their rectal temperature was maintained at 37±0.2°C under inhalation anesthesia. […]
After termination of the water maze tests at the 4th week, the SH-SP rats were anesthetized with chloral hydrate, and they were perfused and fixed transcardially with 0.1 mole phosphate buffer containing 4% paraformaldehyde. […] Areas of the left cerebral hemispheres and the left cerebrocortical infarct lesions were measured on the photographs by using an image analysis device. […]

rats [3] = settings: rat, in vivo
Source text: It has also been reported that no effects of intracerebroventricular administration of ginsenoside Rb1 on brain temperature, cerebral blood flow and blood pressure are observed (Lim J.-H. et al. Neurosci. Res., 28, 191-200, 1997; Zhang B. et al., J. Stroke Cerebrovasc. Dis., 7, 1-9, 1998).

lipid peroxides = settings: cited from earlier work
[4] = tested on: apoptosis-like nerve cell death; settings: 1 fg/ml to 100 fg/ml; cited from earlier work
[5] = in vivo; cited from earlier work
SH-SP rats [6] = assay: Ratio of cerebrovascular area in the non-infarcted ischemic penumbra of the parietal lobe; format: in vivo; settings: for ischemic side (%), ratio of the cerebrovascular area: non-infarcted ischemic penumbra; for ischemic side (%), ratio of the cerebrovascular area / intact side (%), ratio of the cerebrovascular area: mean ± SE, N = 5; for intact side (%), ratio of the cerebrovascular area: per 1.27 mm^2
Source text: Next, we prepared paraffin sections, 5 µm thickness, obtained from brain samples at the level about 2.8 mm posterior to the bregma. Then, we measured the cerebrovascular area per 1.27 mm^2 of the non-infarcted ischemic penumbra in the parietal lobe. This was done for each of the cerebral hemisphere of a group to which ginsenoside Rb1 had been administered intravenously (i.e. the brain tissues had been rescued by administration of ginsenoside Rb1) (Fig. 5). Four sheets of differential interference contrast micrograph were used for measurement (Fig. 6), and the ratio of the cerebrovascular area was calculated (Table 1).
The isolated brain was embedded in paraffin, and paraffin sections, 5µm thick, at the level approximately 2.8 mm posterior to bregma including the cerebrocortical infarct lesion were prepared. Then, we measured the cerebrovascular area per 1.27 mm^2 of the ischemic penumbra rescued by intravenous administration of ginsenoside Rb1. This was done for each of the cerebral hemispheres of the groups to which ginsenoside Rb1 had been administered intravenously (i.e. the brain tissues had been rescued by administering ginsenoside Rb1) (Fig. 5). Four sheets of differential interference contrast micrograph were used for measurement (Fig. 6), and the ratio of the cerebrovascular area was calculated (Table 1). The ratio of cerebrovascular area was also measured in the control hemisphere (intact side).
Fig. 5 is a drawing showing the region for measurement of blood vessel area in the non-infarcted ischemic penumbra of the parietal lobe in a 5µm thick section of the brain. In Fig. 5, the part enclosed with a rectangle is the region for measurement of blood vessel area: cerebrocortical layers II - IV of the parietal lobe; the part painted with black in Fig. 5 is the infarct lesion when ginsenoside Rb1 was administered; and the part shown in gray in Fig. 5 is the infarcted lesion when physiological saline was administered.
Data are represented by mean ± SE. Statistical analyses are conducted by ANOVA + Fisher's PLSD. N = 5.

SH-SP) rats = settings: cited from earlier work
rats [7] = settings: rat, in vivo; cited from earlier work
SH-SP rats [8] = assay: Secondary degeneration of the thalamus: thalamic area ratio and nerve cell count in the VP thalamic nucleus; format: in vivo; settings: mean ± SE; for ratio of area (%), left thalamic area to right thalamic area: ischemic side/intact side × 100, p < 0.05; for count of nerve cells: per 0.099 mm^2 of the ventral posterior nucleus of the thalamus, p < 0.01
Protocol: Further, paraffin sections prepared from brain samples at the level 3.6 mm posterior to bregma were subjected to Nissl staining, and the ratio of the left thalamic area to the right thalamic area (ischemic side/intact side × 100) at the same level was measured. […] In addition, we have investigated the histological patterns of the ventral posterior nucleus of the thalamus (VP thalamic nucleus) which has reciprocal synaptic connections (fiber connections) with the ischemic core of the cerebral cortex. […] […] Data are represented as mean ± SE. Statistical analyses were conducted by Mann-Whitney U-test. In Table 2, *: p < 0.05, **: p < 0.01.

[9] = in vivo, po; cited from earlier work
[10] = tested on: normal cultured nerve cells or neurons; settings: cited from earlier work
SH-SP rats [11] = format: in vivo; settings: for learning disability in the water maze tests: also 1st day at the 4th week
Protocol: as §1
After MCA permanent occlusion, according to the method of the inventors of the present invention (Sakanaka and Tanaka) (Igase, K. et al., J. Cereb. Blood Flow Metab., 19, 298-306, 1999; Zhang B. et al., J. Stroke Cerebrovasc. Dis., 7, 1-9, 1998), water maze tests were performed for 4 days at the 2nd week and the 4th week, respectively, and the place navigation abilities of SH-SP rats were determined.
Male SH-SP rats, at the age of 12-13 weeks, (stroke-prone spontaneously hypertensive rat: weighing 250 - 300 g), were used. Animals were housed in an air-conditioned room furnished with a 12:12 hour light-dark cycle, and water and feeds were supplied ad libitum. The mean blood pressure of the animals was 203±6.9 mmHg. The following experiments were conducted in accordance with the Guide for Animal Experimentation at Ehime University School of Medicine. The cortical branch of the left middle cerebral artery (MCA) of SH-SP rats were coagulated and cut, while their rectal temperature was maintained at 37±0.2°C under inhalation anesthesia.
Immediately after MCA permanent occlusion, […] of physiological saline containing ginsenoside Rb1 at a concentration of 1µg/µl or 0.1µg/µl (60µg or 6µg as ginsenoside Rb1) was injected once into the left femoral vein. Then a catheter connected to the Alza osmotic minipump implanted subcutaneously in the back of each animal was inserted into the same vein from the point of the single injection of ginsenoside Rb1. Physiological saline containing ginsenoside Rb1 was filled in advance in the said osmotic minipump, and ginsenoside Rb1 in a dose of 60µg/day or 6µg/day was continuously infused into the blood stream through the catheter placed in the left femoral vein for 28 days. Flow rate of the ginsenoside Rb1-containing solution was 0.25µl/hour. Control animals with MCA permanent occlusion (ischemic control animals) and sham-operated animals received the same amount of physiological saline.
After the MCA permanent occlusion according to the method of the inventors of the present invention (Sakanaka and Tanaka) (Igase, K. et al., J. Cereb. Blood Flow Metab., 19, 298-306, 1999; Zhang B. et al., J. Stroke Cerebrovasc. Dis., 7, 1-9, 1998), water maze tests were performed for 4 days at the 2nd week and the 4th week, respectively, and place navigation abilities of the SH-SP rats were determined.

Bcl-XL = settings: 1 fg/ml to 100 fg/ml; cited from earlier work
[12] = 6µg/day intravenous for 28 days after MCA permanent occlusion
[13] = 60µg/day intravenous for 28 days after MCA permanent occlusion

Protocol for Wistar rats: We used Wistar rats, (weighing about 300 g), which were loaded with 20 g of compression to the lower thoracic cord for 20 minutes, as an animal model for spinal cord injuries. The rats were anesthetized by inhalation of halothane in a mixture of nitrous oxide and oxygen and were loaded with 20 g of compression to the lower thoracic cord for 20 minutes. More than 30 minutes later, ginsenoside Rb1 dissolved in physiological saline was infused once into the left femoral vein (12 µg or 60 µg). Subsequently continuous intravenous administration of ginsenoside Rb1 was performed for 7 days by using an Alza osmotic minipump (12µg/day or 60µg/day). Control animals' and sham-operated animals were administered with the same amount of physiological saline (vehicle). The open field locomotor scores [Basso, Bettie and Bresnakan (BBB) scores] were measured before the loading of spinal cord injury, on the day of spinal cord injury, and from the 1st day to the 7th day after spinal cord injury in order to determine an index of motor functions (Basso D.M. et al., J. Neurotrauma, 13, 343-359, 1996). […] The rats were anesthetized with inhalation of halothane in a mixture of nitrous oxide and oxygen and were loaded with 20 g of compression to the lower thoracic cord for 20 minutes. More than 30 minutes later, ginsenoside Rb1 dissolved in physiological saline was injected once into the left femoral vein (12µg or 60µg), thereafter continuous intravenous administration of ginsenoside Rb1 was performed for 7 days by using an Alza osmotic minipump (12µg/day or 60µg/day). Control animals and sham-operated animals were administered with the same amount of physiological saline (vehicle). The open field locomotor scores [Basso, Bettie and Bresnakan (BBB) scores] were measured before loading spinal cord injury, on the day of spinal cord injury and from the 1st day to the 7th day after the spinal cord injury for use as an index of motor functions (Basso D.M. et al., J. Neurotrauma, 13, 343-359, 1996).

For `CC(C)=CCC[C@](C)(O[C@@H]1O[C@H](CO[C@@H]2O[C@H](CO)[C@@H](O)[C@H](O)[C@H]2O)[C@@H](O)[C@H](O)[C@H]1O)[C@H]1CC[C@]2(C)[C@@H]1[C@H](O)C[C@@H]1[C@@]3(C)CC[C@H](O[C@@H]4O[C@H](CO)[C@@H](O)[C@H](O)[C@H]4O[C@@H]4O[C@H](CO)[C@@H](O)[C@H](O)[C@H]4O)C(C)(C)[C@@H]3CC[C@]12C` [ginsenoside Rb1, Ginsenoside Rb1], the “delayed neuronal death and learning disability” value (gerbils; intracerebroventricular infusion starting immediately after 3 or 3.5 minutes carotid occlusion) is listed as “suppresses the delayed neuronal death and learning disability”, the “hippocampal CA1 pyramidal neurons rescued” value (gerbils; intraperitoneal 10 mg/kg/day or 20 mg/kg/day before ischemic loading) is listed as “about 30%” and the “delayed neuronal death and learning disability” value (gerbils; intraperitoneal 10 or 20 mg/kg/day once a day for one week in advance, 5 minutes carotid occlusion) is listed as “significantly prevent”. For the same compound, the “effect of administration after the ischemic insult” value (gerbils; intraperitoneal, after the ischemic insult) was “no effect”, the neurotoxicity [1] was “increased neurotoxicity” and the glutamate-mediated neurotoxicity ([1]; high concentrations (0.11-11 µg/ml)) was “reduce glutamate-mediated neurotoxicity”. The “neuronal necrosis caused by ferrous sulfate” value (cultured nerve cells) was “reduces neuronal necrosis”, the “ratio of cerebrocortical infarction” value (SH-SP rats [2]; 6µg/day or 60µg/day intravenous for 28 days, compared with physiological saline group) was “significantly reduced” and the “mean value of the ratio of cerebrocortical infarction compared with that of the physiological saline group” value (SH-SP rats [2]; groups intravenously administered, about 50% or less) was no more than 50%. For the same compound, the “actual volume of infarction relative to physiological saline group” value (SH-SP rats [2]; intravenous administration, inferred from the area ratio) was “about 1/4”, the adverse effects (rats [3]) was “No adverse effects were detected” and the “formation of lipid peroxides” value (lipid peroxides; 100 fg/ml) was “slightly suppressive action”. The “formation of lipid peroxides” value (lipid peroxides; lower concentration range than 100 fg/ml) was “no such effect was observed”, the “apoptosis-like nerve cell death” value [4] was “suppresses apoptosis-like nerve cell death” and the “transfer to the central nervous system” value [5] was “transferred rapidly”. For the same compound, the “ratios of the cerebrovascular areas, control side versus ischemic side” value (SH-SP rats [6]; 6µg/day and 60 µg/day intravenous, 28 days after MCA permanent occlusion) was “no significant difference”, the “ischemic side (%), ratio of the cerebrovascular area” value (SH-SP rats [6]; [12]) was 8.0 ± 0.58% and the “intact side (%), ratio of the cerebrovascular area” value (SH-SP rats [6]; [12]) was 7.0 ± 0.64%. For the same compound, the “ischemic side (%), ratio of the cerebrovascular area” value (SH-SP rats [6]; [13]) was 9.0 ± 0.52%, the “intact side (%), ratio of the cerebrovascular area” value (SH-SP rats [6]; [13]) was 8.3 ± 0.92% and the “effect on cerebral infarction” value (SH-SP) rats; continuous intracerebroventricular infusion 0.6µg/day after MCA occlusion) was “significant suppressive effect”. The “effect on cerebral infarction” value (SH-SP) rats; continuous intracerebroventricular infusion 6µg/day or 0.06µg/day after MCA permanent occlusion) was “no therapeutic effect”, the “brain temperature, cerebral blood flow and blood pressure” value (rats [7]) was “no effects” and the “ratio of area (%), left thalamic area to right thalamic area” value (SH-SP rats [8]; 6µg/day intravenous) was 95.9 ± 3.3* %. For the same compound, the “count of nerve cells” value (SH-SP rats [8]; 6µg/day intravenous) was 30.6 ± 2.9**, the “ratio of area (%), left thalamic area to right thalamic area” value (SH-SP rats [8]; 60µg/day intravenous) was 95.3 ± 2.4* % and the “count of nerve cells” value (SH-SP rats [8]; 60µg/day intravenous) was 31.5 ± 3.6**. The detection in blood [9] was “can not be detected in blood”, the “normal metabolic activity of cultured nerve cells” value [10] was “no effect on normal metabolic activity” and the SNP-induced injuries ([10]; low extracellular concentrations (1 - 100 fg/ml)) was “protects only nerve cells against SNP-induced injuries”. The “motor ability (BBB scores)” value (Wistar rats; 12µg/day or 60µg/day intravenous, 7th day after spinal cord injuries, dose-dependent) was “significantly ameliorated”, the “paraplegia of both hindlimbs” value (Wistar rats; 60 µg/day intravenous after 20 g compression for 20 minutes, after 2 days) was “significantly ameliorated” and the “wound healing of the dorsal skin incision” value (Wistar rats; rat, in vivo) was “no such adverse effects were noted”. The “place navigation disability after MCA permanent occlusion” value (SH-SP rats [11]; 6µg/day or 60µg/day intravenous, compared with physiological saline group) was “significantly improved”, the “learning disability in the water maze tests” value (SH-SP rats [11]; high dose (60µg/day), 4th day at the 2nd week, 3rd and 4th days at the 4th week) was “significantly ameliorated” and the “learning disability in the water maze tests” value (SH-SP rats [11]; low dose (6µg/day), 3rd and 4th day at the 2nd and 4th week) was “significantly ameliorated”. For the same compound, the “swimming speed of SH-SP rats” value (SH-SP rats [11]; rat, in vivo) was “No significant differences” and the “expression of Bcl-XL” value (Bcl-XL) was “increasing the expression”.

From EP1170012A1, “CEREBROVASCULAR REGENERATION/RECONSTRUCTION PROMOTERS AND NERVE TISSUE SECONDARY DEGENERATION INHIBITORS COMPRISING GINSENOSIDE RB 1?” (priority 1999, dated 2000)
